{"source": "patent US20170150719A1", "about": "“FUNGICIDAL PYRAZOLES AND THEIR MIXTURES” (E I DU PONT DE NEMOURS AND COMPANY, priority 2010, published 2017)", "key": {"Septoria nodorum": {"tested_on": "Septoria nodorum", "test": "Test E: Septoria glume blotch, preventive spray on wheat seedlings, visual disease rating", "conditions": "100 = 100% disease control; for pest or weed control at 200 µg/mL: Parastagonospora nodorum, in Triticum aestivum, read-out: Test E rating (disease control), Septoria glume blotch; for pest or weed control at 200 µg/mL / Test E rating (disease control): 0 = no disease control relative to the controls; for Test E rating (disease control): Septoria glume blotch"}, "Septoria tritici": {"tested_on": "Septoria tritici", "test": "Test F: wheat leaf blotch, preventive spray on wheat seedlings, visual disease rating", "format": "in vivo", "design": "Test F rating (disease control), value marked *: concentration or dose not given beside the values", "conditions": "for pest or weed control at 200 µg/mL: Zymoseptoria tritici; for pest or weed control at 200 µg/mL / Test F rating (disease control): 0 = no disease control relative to the controls", "from_the_text": "(§1) A hyphen (-) indicates no test results."}, "Alternaria solani": {"tested_on": "Alternaria solani", "test": "Test B: tomato early blight, preventive spray on tomato seedlings, visual disease rating", "conditions": "for pest or weed control at 200 µg/mL: Alternaria solani, in Solanum lycopersicum, read-out: Test B rating (disease control); for Test B rating (disease control): 0 = no disease control relative to the controls"}, "[1]": {"tested_on": "Puccinia recondita f. sp. tritici", "test": "Test G: wheat leaf rust, spray after inoculation (curative) on wheat seedlings, visual disease rating", "format": "in vivo", "conditions": "100 = 100% disease control; for pest or weed control at 200 µg/mL / Test G rating (disease control): sprayed after inoculation, 0 = no disease control", "from_the_text": "as §1"}, "Botrytis cinerea": {"tested_on": "Botrytis cinerea", "test": "Test A: tomato Botrytis, preventive spray on tomato seedlings, visual disease rating", "conditions": "100 = 100% disease control; for pest or weed control at 200 µg/mL: Botrytis cinerea, in Solanum lycopersicum, read-out: Test A rating (disease control), tomato Botrytis; for pest or weed control at 200 µg/mL / Test A rating (disease control): 0 = no disease control relative to the controls"}, "[2]": {"tested_on": "Puccinia recondita f. sp. tritici", "test": "Test H: wheat leaf rust, preventive spray on wheat seedlings, visual disease rating", "conditions": "100 = 100% disease control; for pest or weed control at 200 µg/mL: read-out: Test H rating (disease control), wheat leaf rust, sprayed the day before inoculation; for pest or weed control at 200 µg/mL / Test H rating (disease control): 0 = no disease control; for Test H rating (disease control): sprayed the day before inoculation"}, "[3]": {"tested_on": "Blumeria graminis f. sp. tritici", "test": "Test I: wheat powdery mildew, preventive spray on wheat seedlings, visual disease rating", "conditions": "100 = 100% disease control; for pest or weed control at 200 µg/mL: Blumeria graminis, in Triticum aestivum, read-out: Test I rating (disease control), wheat powdery mildew; for pest or weed control at 200 µg/mL / Test I rating (disease control): 0 = no disease control relative to the controls"}, "[4]": {"conditions": "tomato early blight, 100 = 100% disease control"}}, "note": "Marks after values point to notes of the source that are not given here."}
{"smiles": "Cc1nn(C)c(Oc2ccc(C#N)cc2Cl)c1-c1ccc(F)cc1F", "note": "[Compound 140, 3-chloro-4-[[4-(2,4-difluorophenyl)-1,3-dimethyl-1H-pyrazol-5-yl]oxy]benzonitrile]", "values": [{"measurement": "pest or weed control at 200 µg/mL", "setting": "Septoria nodorum", "result": 0, "unit": "%"}, {"measurement": "pest or weed control at 200 µg/mL", "setting": "Septoria tritici; 100 = 100% disease control", "result": 100, "unit": "%"}, {"measurement": "pest or weed control at 200 µg/mL", "setting": "Alternaria solani", "result": 0, "unit": "%"}, {"measurement": "pest or weed control at 200 µg/mL", "setting": "[1]", "result": 9, "unit": "%"}, {"measurement": "pest or weed control at 200 µg/mL", "setting": "Botrytis cinerea", "result": 67, "unit": "%"}, {"measurement": "pest or weed control at 200 µg/mL", "setting": "[2]", "result": 97, "unit": "%"}, {"measurement": "pest or weed control at 200 µg/mL", "setting": "[3]", "result": 97, "unit": "%"}]}
{"smiles": "Cc1nn(C)c(Nc2ccc(Cl)cc2Cl)c1-c1ccc(F)cc1Cl", "note": "[compound 88]", "values": [{"measurement": "Test E rating (disease control)", "setting": "Septoria nodorum", "result": 51, "unit": "%"}, {"measurement": "Test F rating (disease control), value marked *", "setting": "Septoria tritici; rating marked with asterisk (*), other test condition, not explained in the text shown", "result": "100* %"}, {"measurement": "Test B rating (disease control)", "setting": "Alternaria solani; [4]", "result": 95, "unit": "%"}, {"measurement": "Test G rating (disease control)", "setting": "[1]", "result": 41, "unit": "%"}, {"measurement": "Test A rating (disease control)", "setting": "Botrytis cinerea; tomato Botrytis", "result": 100, "unit": "%"}, {"measurement": "Test H rating (disease control)", "setting": "[2]; wheat leaf rust", "result": 100, "unit": "%"}, {"measurement": "Test I rating (disease control)", "setting": "[3]; wheat powdery mildew", "result": 100, "unit": "%"}]}
{"smiles": "Cc1nn(C)c(Nc2ccc(Br)cc2F)c1-c1ccc(F)cc1Cl", "note": "[compound 135]", "values": [{"measurement": "Test E rating (disease control)", "setting": "Septoria nodorum", "result": 0, "unit": "%"}, {"measurement": "Test F rating (disease control)", "setting": "Septoria tritici; 100 = 100% disease control", "result": 100, "unit": "%"}, {"measurement": "Test B rating (disease control)", "setting": "Alternaria solani; [4]", "result": 58, "unit": "%"}, {"measurement": "Test G rating (disease control)", "setting": "[1]", "result": 9, "unit": "%"}, {"measurement": "Test A rating (disease control)", "setting": "Botrytis cinerea; tomato Botrytis", "result": 100, "unit": "%"}, {"measurement": "Test H rating (disease control)", "setting": "[2]; wheat leaf rust", "result": 99, "unit": "%"}, {"measurement": "Test I rating (disease control)", "setting": "[3]; wheat powdery mildew", "result": 100, "unit": "%"}]}
{"smiles": "CCOc1ccc(-c2c(C)nn(C)c2Nc2c(F)cc(F)cc2Cl)c(Cl)c1", "note": "[compound 206]", "values": [{"measurement": "Test E rating (% disease control)", "setting": "Septoria nodorum; Septoria glume blotch on wheat, preventive spray, rating without asterisk", "result": 99, "unit": "%"}, {"measurement": "Test F rating (% disease control)", "setting": "Septoria tritici; preventive spray, 100 = 100% disease control, rating without asterisk", "result": 100, "unit": "%"}, {"measurement": "Test B rating (% disease control)", "setting": "Alternaria solani; tomato early blight, preventive spray, 100 = 100% disease control, rating without asterisk", "result": 100, "unit": "%"}, {"measurement": "Test G rating (% disease control)", "setting": "[1]; spray after inoculation, rating without asterisk", "result": 0, "unit": "%"}, {"measurement": "Test A rating (% disease control)", "setting": "Botrytis cinerea; tomato Botrytis, preventive spray, 0 = no control relative to controls, rating without asterisk", "result": 99, "unit": "%"}, {"measurement": "Test H rating (% disease control)", "setting": "[2]; wheat leaf rust, preventive spray, rating without asterisk", "result": 99, "unit": "%"}, {"measurement": "Test I rating (% disease control)", "setting": "[3]; wheat powdery mildew, preventive spray, rating without asterisk", "result": 100, "unit": "%"}]}
{"smiles": "COc1ccc(-c2c(C)nn(C)c2Oc2ccc(C#N)cc2F)c(Cl)c1", "note": "[compound 92]", "values": [{"measurement": "Test E rating (disease control)", "setting": "Septoria nodorum", "result": 99, "unit": "%"}, {"measurement": "Test F rating (disease control)", "setting": "Septoria tritici; 100 = 100% disease control", "result": 100, "unit": "%"}, {"measurement": "Test B rating (disease control)", "setting": "Alternaria solani; [4]", "result": 99, "unit": "%"}, {"measurement": "Test G rating (disease control)", "setting": "[1]", "result": 0, "unit": "%"}, {"measurement": "Test A rating (disease control)", "setting": "Botrytis cinerea; tomato Botrytis", "result": 100, "unit": "%"}, {"measurement": "Test H rating (disease control)", "setting": "[2]; wheat leaf rust", "result": 99, "unit": "%"}, {"measurement": "Test I rating (disease control)", "setting": "[3]; wheat powdery mildew", "result": 96, "unit": "%"}]}
{"smiles": "Cc1nn(C)c(Nc2ccc(F)cc2F)c1-c1c(F)cc(C#N)cc1F", "note": "[compound 30]", "values": [{"measurement": "Test E rating (disease control)", "setting": "Septoria nodorum", "result": 90, "unit": "%"}, {"measurement": "Test F rating (disease control)", "setting": "Septoria tritici; 100 = 100% disease control", "result": 100, "unit": "%"}, {"measurement": "Test B rating (disease control)", "setting": "Alternaria solani; [4]", "result": 99, "unit": "%"}, {"measurement": "Test G rating (disease control)", "setting": "[1]", "result": 82, "unit": "%"}, {"measurement": "Test A rating (disease control)", "setting": "Botrytis cinerea; tomato Botrytis", "result": 100, "unit": "%"}, {"measurement": "Test H rating (disease control)", "setting": "[2]; wheat leaf rust", "result": 99, "unit": "%"}, {"measurement": "Test I rating (disease control)", "setting": "[3]; wheat powdery mildew", "result": 100, "unit": "%"}]}
{"smiles": "Cc1nn(C)c(C(O)c2ccc(F)cc2Cl)c1-c1ccc(F)cc1Cl", "note": "(stereo not drawn) [Compound 123, α,4-bis(2-chloro-4-fluorophenyl)-1,3-dimethyl-1H-pyrazole-5-methanol]", "values": [{"measurement": "pest or weed control at 200 µg/mL", "setting": "Septoria nodorum", "result": 60, "unit": "%"}, {"measurement": "pest or weed control at 200 µg/mL", "setting": "Septoria tritici; 100 = 100% disease control", "result": 100, "unit": "%"}, {"measurement": "pest or weed control at 200 µg/mL", "setting": "Alternaria solani", "result": 86, "unit": "%"}, {"measurement": "pest or weed control at 200 µg/mL", "setting": "[1]", "result": 6, "unit": "%"}, {"measurement": "pest or weed control at 200 µg/mL", "setting": "Botrytis cinerea", "result": 100, "unit": "%"}, {"measurement": "pest or weed control at 200 µg/mL", "setting": "[2]", "result": 100, "unit": "%"}, {"measurement": "pest or weed control at 200 µg/mL", "setting": "[3]", "result": 95, "unit": "%"}]}
{"smiles": "Cc1nn(C)c(Nc2c(F)cc(Br)cc2F)c1-c1ccc(F)cc1F", "note": "[Compound 133, N-(4-bromo-2,6-difluorophenyl)-4-(2,4-difluorophenyl)-1,3-dimethyl-1H-pyrazol-5-amine]", "values": [{"measurement": "pest or weed control at 200 µg/mL", "setting": "Septoria nodorum", "result": 88, "unit": "%"}, {"measurement": "pest or weed control at 200 µg/mL", "setting": "Septoria tritici; 100 = 100% disease control", "result": 100, "unit": "%"}, {"measurement": "pest or weed control at 200 µg/mL", "setting": "Alternaria solani", "result": 97, "unit": "%"}, {"measurement": "pest or weed control at 200 µg/mL", "setting": "[1]", "result": 0, "unit": "%"}, {"measurement": "pest or weed control at 200 µg/mL", "setting": "Botrytis cinerea", "result": 99, "unit": "%"}, {"measurement": "pest or weed control at 200 µg/mL", "setting": "[2]", "result": 99, "unit": "%"}, {"measurement": "pest or weed control at 200 µg/mL", "setting": "[3]", "result": 100, "unit": "%"}]}
